The source made the active and inactive calls. Unless noted, no cut-off for these calls is given here.

A short description of assay [1]: ATP-based viability loss in A549 cells – cell-based, CellTiter-Glo luminescence, dry powder samples, cytotoxicity control, dose response (AID 720585). The class given is functional.
Assay [2] in a line: viability loss in HEK293 kidney cells – cell-based, cherry-picks, set 5, cytotoxicity control, dose response (AID 1053117). The class given is functional.
Assay [3] can be described thus: viability loss in HepG2 hepatoma cells – cell-based, cherry-picks, set 5, cytotoxicity control, dose response (AID 1053118). Type of assay: functional.
A short description of assay [4]: blockers of FN fibrillogenesis by fibroblasts – AH1F cells, Alexa488-FN fluorescence, cherry-picks, dose response (AID 1035475). The class given is functional, cell-based.
Assay [5] deals with Metabotropic glutamate receptor 5 (Rattus norvegicus, UniProt P31424). Put plainly: Identification of a glycine sulfonamide based non-MPEP site positive allosteric potentiator (PAM) of mGlu5 (calcium_assay). The class given is functional.
Sequence of Metabotropic glutamate receptor 5 (P31424 whole entry): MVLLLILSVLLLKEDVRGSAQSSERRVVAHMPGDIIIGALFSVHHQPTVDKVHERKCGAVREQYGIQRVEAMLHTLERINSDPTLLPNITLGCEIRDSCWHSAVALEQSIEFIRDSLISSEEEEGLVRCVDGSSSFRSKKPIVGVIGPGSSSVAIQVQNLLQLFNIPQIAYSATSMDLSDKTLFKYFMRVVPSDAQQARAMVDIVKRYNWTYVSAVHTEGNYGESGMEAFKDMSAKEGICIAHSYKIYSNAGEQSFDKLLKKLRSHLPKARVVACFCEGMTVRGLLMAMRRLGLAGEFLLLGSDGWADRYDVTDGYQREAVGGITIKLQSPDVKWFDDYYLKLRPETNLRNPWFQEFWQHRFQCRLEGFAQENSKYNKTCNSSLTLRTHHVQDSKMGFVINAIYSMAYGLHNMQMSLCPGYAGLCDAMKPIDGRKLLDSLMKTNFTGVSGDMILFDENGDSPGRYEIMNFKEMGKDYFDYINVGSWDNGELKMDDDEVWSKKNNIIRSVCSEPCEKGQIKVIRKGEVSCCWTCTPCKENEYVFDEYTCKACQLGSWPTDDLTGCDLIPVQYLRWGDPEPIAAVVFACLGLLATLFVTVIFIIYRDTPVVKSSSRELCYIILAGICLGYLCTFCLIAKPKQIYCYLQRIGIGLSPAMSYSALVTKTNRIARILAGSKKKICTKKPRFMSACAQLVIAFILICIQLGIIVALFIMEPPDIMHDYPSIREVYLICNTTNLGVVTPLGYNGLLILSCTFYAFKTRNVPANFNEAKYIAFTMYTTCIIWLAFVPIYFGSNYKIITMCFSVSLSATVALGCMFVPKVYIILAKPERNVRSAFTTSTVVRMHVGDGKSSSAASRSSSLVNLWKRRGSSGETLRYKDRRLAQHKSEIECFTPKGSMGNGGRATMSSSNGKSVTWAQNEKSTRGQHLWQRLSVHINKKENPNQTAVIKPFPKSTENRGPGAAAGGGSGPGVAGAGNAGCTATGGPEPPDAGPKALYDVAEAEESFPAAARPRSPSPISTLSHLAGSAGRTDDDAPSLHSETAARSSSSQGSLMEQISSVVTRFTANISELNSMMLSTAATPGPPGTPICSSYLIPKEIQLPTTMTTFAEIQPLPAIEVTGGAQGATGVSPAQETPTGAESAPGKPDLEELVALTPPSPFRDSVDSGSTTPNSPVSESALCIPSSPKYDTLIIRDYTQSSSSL
The nature of assay [6]: kidney cell line viability loss – HEK293T, luminescence plate reader, powder samples, set 4, cytotoxicity control, dose response (AID 651863). Type of assay: functional, cell-based. As to conditions: HEK293.
Assay [7] can be described thus: viability loss in HEK293T cells – cell-based, CellTiter-Glo luminescence, dry powder, set 6, cytotoxicity control, dose response (AID 651949). Type of assay: functional. As to conditions: HEK293. (In general: ATP-based viability assays read luminescence as a measure of living cells.)
The nature of assay [8]: inhibitors of non-replicating M. tuberculosis, dose response, luciferase, dry powder (AID 651620). The class given is functional. As to conditions: Mycobacterium tuberculosis.
Assay [9] in a line: growth inhibition of replicating M. tuberculosis, dose response, counter-screen, dry powder, IC90 (AID 651617). Type of assay: functional. As to conditions: Mycobacterium tuberculosis. On the technique in general: A counterscreen serves to expose hits that act by an unwanted route or on another target.
The nature of assay [10]: inhibitors of non-replicating M. tuberculosis, dose response, luciferase, dry powder (AID 651619). As to conditions: Mycobacterium tuberculosis. The class given is functional.
Another assay concerns the target Mu-type opioid receptor (Homo sapiens, UniProt P35372). Briefly: Late-stage results from the probe development effort to identify antagonists of OPRK1: luminescence-based cell-based dose response OPRM1 counterscreen. Type of assay: functional.
Assay [11] has as its target Delta-type opioid receptor (Homo sapiens, UniProt P41143). Put plainly: Late-stage results from the probe development effort to identify antagonists of OPRK1: fluorescence-based cell-based dose response OPRD1 counterscreen. The class given is functional.
Assay [12] is described as follows: Late stage assay provider results from the probe development effort to identify selective inhibitors of heat shock protein 90 (HSP90): Absorbance-based cell proliferation assay in MCF7 cells. The class given is functional.
Assay [13] in a line: Late stage assay provider results from the probe development effort to identify selective inhibitors of heat shock protein 90 (HSP90): Absorbance-based cell proliferation assay in SKBR3 cells. The class given is functional. As to conditions: SK-BR-3.
Assay [14] can be described thus: A Cell-Based Confirmatory Screen for Compounds that Inhibit VEEV, TC-83 (8). The class given is functional.

Sequence of Delta-type opioid receptor (P41143 whole entry): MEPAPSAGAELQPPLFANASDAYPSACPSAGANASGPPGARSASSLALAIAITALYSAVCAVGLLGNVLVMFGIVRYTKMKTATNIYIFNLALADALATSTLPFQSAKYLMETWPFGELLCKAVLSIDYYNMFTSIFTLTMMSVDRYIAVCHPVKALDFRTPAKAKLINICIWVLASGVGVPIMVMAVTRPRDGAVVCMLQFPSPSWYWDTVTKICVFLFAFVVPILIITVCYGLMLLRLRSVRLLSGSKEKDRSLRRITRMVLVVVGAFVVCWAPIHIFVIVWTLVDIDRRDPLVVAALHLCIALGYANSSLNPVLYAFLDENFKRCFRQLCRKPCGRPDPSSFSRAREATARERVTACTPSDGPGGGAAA
Sequence of Mu-type opioid receptor (P35372 whole entry): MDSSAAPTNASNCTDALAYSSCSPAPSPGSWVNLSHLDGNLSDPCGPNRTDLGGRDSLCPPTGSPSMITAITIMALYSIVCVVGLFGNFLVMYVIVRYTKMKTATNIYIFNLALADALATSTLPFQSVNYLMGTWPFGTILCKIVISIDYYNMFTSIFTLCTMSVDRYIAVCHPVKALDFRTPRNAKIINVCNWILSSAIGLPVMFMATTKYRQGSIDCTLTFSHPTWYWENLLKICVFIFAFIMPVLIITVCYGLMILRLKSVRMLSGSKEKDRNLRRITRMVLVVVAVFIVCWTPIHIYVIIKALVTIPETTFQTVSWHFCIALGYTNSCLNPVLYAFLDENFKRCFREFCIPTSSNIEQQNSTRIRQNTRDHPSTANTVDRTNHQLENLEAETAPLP

`Cc1ccc(/C=C(\CCCC(=O)O)c2nc3ccccc3s2)cc1[N+](=O)[O-]`: the AbsAC50_uM in assay [1] was 140.77 µM.
A word on the AC50: it is the concentration at which the activity in the assay is half-maximal. Take `O=S(=O)(c1cccc(F)c1)N1CC[C@@H]2[C@@H](CO)Nc3ccc(-c4cccc(F)c4)cc3[C@@H]21`: the AC50 in assay [2] is 22.6 µM (active); in [3], 27.3 µM (active); in assay [4] it was 6.54 µM (active).
By EC50 is commonly meant the concentration needed to bring the measured effect to its halfway point. Turning to `CS(=O)(=O)N(CC(=O)Nc1ccc(F)cc1F)c1cc(C(F)(F)F)ccc1Cl`, the EC50 in assay [5] worked out at 2.41 µM.
For the compound `O=C(NC[C@@H]1c2ccccc2CCN1C(=O)[C@@H]1CCCC[C@@H]1C(=O)O)OCC1c2ccccc2-c2ccccc21`, the AC50 in assay [6] was 46.3 µM (active).
The term IC90 denotes the concentration needed for an effect of 90%. As to `c1ccc(-n2cc(CSc3nnc(C4CCC4)o3)nn2)cc1`, in assay [7], the AC50 is > 52 µM (inactive). Further, the figures for the IC90 in assay [8], in assay [9] and in assay [10] were 2 µM (active), 62 µM (active) and 2 µM (active), respectively.
The IC50 is the concentration that gives 50% inhibition. In the case of `CC(C)OC(=O)c1cc(Br)cnc1N1CCC(NC2CCCCC2)CC1`, the IC50 is 20 µM (inactive) at Mu-type opioid receptor and 3 µM (active) in assay [11].
With `COc1c[nH]c(C(=O)Nc2cccc(C(C)=O)c2)cc1=O`, the IC50 in [12] and in assay [13] was > 100 µM (inactive) throughout.
As to `CNCCN(C)Cc1nc2ccc(C#N)cc2c(=O)n1-c1ccccc1F`, in [14], the IC50 is 3.69 µM (active).
